Patent publication US20260373123A1, “IMPROVED TREATMENT OF CANCERS USING COMBINATIONS OF SMARCA2 DEGRADERS AND KRAS TARGETING THERAPIES” (Prelude Therapeutics Incorporated, priority 2022, published 2026)
“Also recorded” adds a separate entry of the source.

Columns and labels:
NCI-H2030 = assay: Cell proliferation assay (CellTiter-Glo), drug combination synergy by Bliss and ZIP models, NCI-H2030; format: cell-based; settings: combination of compound 1 with KRAS G12C inhibitor (MRTX849, AMG510, ARS-1620 or JDQ-443); for synergy (anti-proliferation effects): NCI-H2030, SMARCA4 low/KRAS G12C, day 7; for Bliss synergy score / ZIP synergy score: NCI-H2030, synergistic effect likely where scores larger than 10
Procedure: FIG. 2. […] Lung cancer NCI-H2030 cells (SMARAC4 low/KRAS G12C) were treated with KRAS G12C inhibitor (MRTX849, AMG510, ARS1629 or JDQ-443) and with a SMARCA2 degrader (compound 1) in a different dose-range. Cell viability was analyzed on day 7 using Cell-titer Glo.
FIG. 5. Bliss and ZIP synergy scores of H2030 cells treated with a SMARCA2 degrader (compound 1) and a KRAS targeting therapy (MRTX849, AMG510, ARS1629 or JDQ443). Synergistic effect is likely where synergy scores are larger than 10.
(§1) The degree of combination synergy, or antagonism, is quantified by comparing the observed drug combination response against the expected response, calculated using a reference model that assumes no interaction between drugs. Drug synergy was determined using the Bliss and Zero interaction potency (ZIP) reference models.
(§2) The Bliss independence model assumes a stochastic process in which two drugs elicit their effects independently, and the expected combination effect can be calculated based on the probability of independent events; The ZIP model captures the drug interaction relationships by comparing the change in the potency (effect at certain dose level) of the dose-response curves between individual drugs and their combinations. ZIP assumes that two non-interacting drugs are expected to incur minimal changes in their dose-response curves. Model calculations can be found at www.ncbi.nlm.nih.gov/pmc/articles/PMC4759128/.
(§3) Cell proliferation assay: Cells were plated in 384-well white-walled, clear-bottom plates in standard tissue culture conditions. 250 cells per well of the NCI-H2030 (ATCC, CRL-5914) cell line was seeded in RPMI-1640 medium, FBS serum to a final concentration of 10%, 100 cells per well of the UM-UC-3 (ATCC, CRL-1749) cell line was seeded in EMEM medium, FBS serum to a final concentration of 10%. The day after plating, serial dilutions of two compounds were plated in dose-response matrices in quadruplicate, including DMSO controls, using a Tecan D300e Digital Dispenser (Tecan Group Ltd. Männedorf, Switzerland). All wells were normalized to highest total volume of DMSO. 7 days later the CellTiter-Glo® 2.0 Cell Viability Assay (CTG) (#G9242, Promega, Madison, WI) was used to measure cell viability effects of drug combinations. The expected drug combination responses were calculated based on Bliss and ZIP reference model using SynergyFinder (Ianevski et al, 2020). Deviations between observed and expected responses with positive and negative values denote synergy and antagonism respectively. Synergistic effect is likely where synergy scores are larger than 10. MRTX849 (Adagrasib, Catalog No. S8884) and ARS-1620 (Catalog No. S8707) were purchased from Selleck Chemicals. AMG510 (Sotorasib, Catalog No. HY-114277) and JDQ-443 (Catalog No. HY-139612) were purchased from MedChemExpress.
NCI-H2030 is a non-small cell lung cancer cell line that express low SMARCA4 and KRAS G12C mutation. Combination therapy was applied to H2030 cells and % viable cells was calculated (see FIG. 2). Bliss and ZIP scores are larger than 10, which indicates compound 1 and KRAS G12C inhibitors will likely show synergistic effects (FIG. 5).

UM-UC-3 = assay: Cell proliferation assay (CellTiter-Glo), drug combination synergy by Bliss and ZIP models, UM-UC-3; format: cell-based, human; settings: for synergy (anti-proliferation effects): combination of compound 1 with KRAS G12C inhibitor (MRTX849, AMG510, ARS1629 or JDQ443), UM-UC-3, SMARCA4 damaging mutation/KRAS G12C, day 7
Procedure: FIG. 3. […] Bladder cancer UM-UC-3 cells (SMARAC4 damaging mutation/KRAS G12C) were treated with KRAS G12C inhibitor (MRTX849, AMG510, ARS1629 or JDQ443) and with a SMARCA2 degrader (compound 1) in a different dose-range. Cell viability was analyzed on day 7 using Cell-titer Glo.
FIG. 6. Bliss and ZIP synergy scores of UM-UC-3 cells treated with a SMARCA2 degrader (compound 1) and a KRAS targeting therapy (MRTX849, AMG510, ARS1629 or JDQ443). Synergistic effect is likely where synergy scores are larger than 10.
as §1, §2, §3
UC-UM-3 is a human bladder transitional cell carcinoma cancer cell line that expresses SMARCA4 damaging mutation and KRAS G12C mutation. Combination therapy was applied to UM-UC-3 cells and % viable cells was calculated (FIG. 3). Bliss and ZIP scores are larger than 10, which indicates compound 1 and KRAS G12C inhibitors will likely show synergistic effects (FIG. 6).

NCI-H838 cells = assay: Cell viability (Cell-titer Glo), drug combination, control line NCI-H838; format: cell-based; settings: combination of compound 1 with KRAS G12C inhibitor (MRTX849 or AMG510); NCI-H838, SMARCA4 damaging mutation/KRAS WT; day 7
Procedure: (§4) FIG. 4. […] Lung cancer NCI-H838 cells (SMARAC4 damaging mutation/KRAS WT) or NCI-H358 cells (SMARCA4 WT/KRAS G12C) were treated with KRAS G12C inhibitor (MRTX849 or AMG510) and with a SMARCA2 degrader (compound 1) in a different dose-range. Cell viability was analyzed on day 7 using Cell-titer Glo.
as §3, with “Synergistic effect is likely where synergy scores are larger than 10. MRTX849 (Adagrasib, Catalog No. S8884) and ARS-1620 (Catalog No. S8707) were purchased from Selleck Chemicals. AMG510 (Sotorasib, Catalog No. HY-114277) and JDQ-443 (Catalog No. HY-139612) were purchased from MedChemExpress.” left out

NCI-H358 cells = assay: Cell viability (Cell-titer Glo), drug combination, control line NCI-H358; format: cell-based; settings: combination of compound 1 with KRAS G12C inhibitor (MRTX849 or AMG510); NCI-H358, SMARCA4 WT/KRAS G12C; day 7
Procedure: as §4
as §3, with “Synergistic effect is likely where synergy scores are larger than 10. MRTX849 (Adagrasib, Catalog No. S8884) and ARS-1620 (Catalog No. S8707) were purchased from Selleck Chemicals. AMG510 (Sotorasib, Catalog No. HY-114277) and JDQ-443 (Catalog No. HY-139612) were purchased from MedChemExpress.” left out

UM-UC-3 xenograft tumors = assay: Tumor volume in mice with UM-UC-3 xenograft tumors; format: in vivo; settings: for tumor volume reduction (synergy): combination: compound 1 100 mg/kg s.c. Q3D and MRTX849 10 mg/kg p.o. QD, UM-UC-3
Procedure: FIG. 7. Plot of mean tumor volume vs. dosing time for UM-UC-3 cells treated with a SMARCA2 degrader (compound 1) and a KRAS targeting therapy (MRTX849).
(§5) The concentration of compound 1 was 100 mg/kg s.c. Q3D and the concentration of MRTX849 was 10 mg/kg p.o. QD. Statistical analysis used the two-tailed Mann-Whitney test versus vehicle, with *P<0.05, **P<0.01 and ***P<0.001.

H2030 xenograft tumors = assay: Tumor volume in mice with H2030 xenograft tumors; format: in vivo; settings: for tumor volume reduction (synergy): combination: compound 1 100 mg/kg s.c. Q3D and MRTX849 10 mg/kg p.o. QD, H2030
Procedure: FIG. 8. Plot of mean tumor volume vs. dosing time for H2030 cells treated with a SMARCA2 degrader (compound 1) and a KRAS targeting therapy (MRTX849).
as §5

[1] = combination of compound 1 with KRAS G12C inhibitors, UM-UC-3, synergistic effect likely where scores larger than 10

Row | Structure (SMILES) | synergy (anti-proliferation effects) (NCI-H2030) | Bliss synergy score (NCI-H2030) | ZIP synergy score (NCI-H2030) | synergy (anti-proliferation effects) (UM-UC-3) | synergy (anti-proliferation effects) (NCI-H2030; listed as ARS1629) | Bliss synergy score (UM-UC-3; [1]) | ZIP synergy score (UM-UC-3; [1]) | synergistic effects (cell viability) (NCI-H838 cells) | synergistic effects (cell viability) (NCI-H358 cells) | enlargement of tumor volumes (UM-UC-3 xenograft tumors; combination of compound 1 and a KRAS targeting therapy, mice with UM-UC-3 xenograft tumors) | tumor volume reduction (synergy) (UM-UC-3 xenograft tumors) | enlargement of tumor volumes (H2030 xenograft tumors; combination of compound 1 and a KRAS targeting therapy, mice with H2030 xenograft tumors) | tumor volume reduction (synergy) (H2030 xenograft tumors)
1 | C=CC(=O)N1CCN(c2nc(=O)n(-c3c(C)ccnc3C(C)C)c3nc(-c4c(O)cccc4F)c(F)cc23)[C@@H](C)C1 (atropisomer, axis not shown) [JDQ-443] | synergistic anti-proliferation effects; also recorded: Excellent synergy | > 10 | > 10 | synergistic anti-proliferation effects |  |  |  |  |  |  |  |  | 
2 | C=CC(=O)N1CCN(c2ncnc3c(F)c(-c4c(O)cccc4F)c(Cl)cc23)CC1 [ARS-1620] | Excellent synergy | > 10 | > 10 | synergistic anti-proliferation effects | synergistic anti-proliferation effects |  |  |  |  |  |  |  | 
3 | Cc1ncsc1-c1ccc([C@H](C)NC(=O)[C@@H]2C[C@@H](O)CN2C(=O)[C@@H](c2cc(O[C@@H](C)CN3CC[C@@H](N4CCN5c6cc(-c7ccccc7O)nnc6NC[C@H]5C4)C3)no2)C(C)C)cc1 [Compound 1] | synergistic anti-proliferation effects; also recorded: Excellent synergy; also recorded: potent synergistic interaction | > 10 | > 10 | synergistic anti-proliferation effects; also recorded: Excellent synergy; also recorded: potent synergistic interaction |  | > 10 | > 10 | do not show synergistic effects | do not show synergistic effects | can slow down the enlargement of tumor volumes | synergistic effects for tumor volume reduction | can slow down the enlargement of tumor volumes | synergistic effects for tumor volume reduction
4 | C=C(F)C(=O)N1CCN(c2nc(OC[C@@H]3CCCN3C)nc3c2CCN(c2cccc4cccc(Cl)c24)C3)C[C@@H]1CC#N [MRTX849, adagrasib] | synergistic anti-proliferation effects; also recorded: Excellent synergy | > 10 | > 10 | synergistic anti-proliferation effects |  |  |  | do not show synergistic effects | do not show synergistic effects |  | synergistic effects for tumor volume reduction |  | synergistic effects for tumor volume reduction
